According to patent publication US20200138764A1, “METHODS AND DEVICES FOR ACTIVATING ADIPOSE TISSUE” (The Procter & Gamble Company, priority 2018, published 2020):

What was measured:
adipocytes = experiment: Real Time PCR analysis of adipocytes, in vitro; format: cell-based, human; details: Real Time PCR, relative to untreated control = 1
Protocol: For Real Time PCR analysis of adipocytes, cells from cultures grown in 24 well plates were collected. RNA was isolated using RNeasy Kit (Cat 74104, Qiagen, Germantown, Md.) using manufacturer's protocol. RNA was quantitated using the Nanodrop 1000 (Thermofisher, Waltham, Mass.). cDNA formation was carried out using PowerUp SYBR™ Green Master Mix and real time PCR carried out on QuantStudio 6 machine (ThermoFisher, Waltham, Mass.) per manufacturer protocol. ΔΔCT analysis was done using the Expression Suite software (ThermoFisher) purchased with the instrument.
TABLE 2 used Real Time PCR to determine which proteins were expressed in adipocytes upon treatment with activating compounds. […] Real Time PCR values were relative to a control sample that was not treated with any activating compounds. […] In WS-5 and Menthol, no Real Time PCR value was over 2.0, which indicated only slight changes in mRNA expression.

[1] = tested on: Human subcutaneous pre-adipocytes; experiment: Lipogenesis Assay (AdipoRed staining); format: cell-based; details: AdipoRed fluorescence, NI = no inhibition at concentration less than/equal to 1 mM
Protocol: Lipogenesis is the process by which acetyl-CoA is converted to fatty acid. Through lipogenesis and subsequent triglyceride synthesis, energy can be stored in the form of adipose tissue (i.e. fats). To determine what effect, if any, activating compounds (shown in TABLE 1) had on lipogenesis, the protocol listed below was used.
To determine whether the activating compounds (shown in TABLE 1) impacted the formation of white adipocytes from pre-adipocytes, a lipogenesis assay was performed. The cells utilized in the protocol were cryo-preserved Human subcutaneous pre-adipocytes superlot (Zen-Bio, Inc., Research Triangle Park, N.C., Cat # SP-F-SL). The growth media used was PM-1 (Zen-Bio, Inc., Research Triangle Park, N.C., cat # PM-1) plus 5 ng/mL Epidermal Growth Factor (EGF). The PM-1+5 ng/mL EGF was prepared by adding 12.5 uL of 200 ug/mL EGF stock to 500 mL PM-1. The differentiation media used was DM-2 (Zen-Bio, Inc., Research Triangle Park, N.C., cat # DM-2). The adipocyte maintenance media used was AM-1 (Zen-Bio, Inc., Research Triangle Park, N.C., cat # AM-1).
First, the human subcutaneous pre-adipocyte cells were thawed in a 37° C. water bath. Next, the thawed pre-adipocyte cells were added to 9 mL of growth medium (PM-1) at 20° C. in a 15 mL polypropylene tube (Bioexpress, Corning, Corning, N.Y.). The tube was centrifuged at 280×g (˜1100 rpm) at 20° C. for 5 min. After 5 min, the supernatant was removed and the accumulated solids were re-suspended in 2 mL of PM-1 using trituration. The suspension of cells was counted under 100× magnification using a Cyto C-Chip hemacytometer (Incyto, Seoul, South Korea, cat # DHC-N01-5). In order to proceed, 15-50 cells per 1×1 mm square in hemacytometer was needed. If, the number of cells per square was not met, 6.7×10^5 (670,000) cells per T75 flask (Bioexpress, Corning, Corning, N.Y.) were added to each square and the suspension was diluted to 20 mL with PM-1. Every other day, new media was added to replace media removed due to metabolism by the cells. The cells were re-counted as described previously. Cells were grown to 80-90% confluence, which took approximately 4-5 days. 80-90% confluence is determined by visual inspection of the area of the flask occupied by the cells. When 80-90% of the flask area has been occupied, cells are at 80-90% confluence. Cell colonies were then split 1:6 by harvesting from a single flask and equally dividing the harvested cells into six flasks. Colonies were not allowed to exceed 3 passages and were not grown to complete confluence. The pre-adipocytes were grown until they contact with other cells in the flask to aid differentiation into white or brown adipocytes.
After the pre-adipocytes were sufficiently grown to 90% confluence, the cells were ready for differentiation and treatment with an activating compound. Cells were washed with 3 mL of PBS and detached using 3 mL of Trypsin EDTA. The cells were incubated at 37° C. for 5 minutes. Next, the cells were centrifuged at 280×g at 20° C. for 5 minutes. The supernatant was discarded and the resulting pellet was re-suspended in 10 mL of PM-1 using trituration. Cells were counted at 100× magnification and the cells were diluted to 86,667 cells/mL (˜13,000 cells/150 μL) by adding the necessary amount of PM-1 to achieve the desired concentration. Upon addition of PM-1, samples were swirled by hand to evenly disperse the cells prior to plating.
Once confluence is reached, 150 μL of differentiation media (DM-2) was added (DAY 0). Samples were incubated at 37° C. for 6 days. On DAY 6, 90 μL of media was removed from each sample via aspiration, without touching the bottom of the well. Next, 140 μL of adipocyte maintenance medium (AM-1) was added. The AM-1 ran down the side of well. On DAY 6, activating compounds were added (2 μL of 10 mM activating compound) to give a final concentration of 100 μM of activating compounds. […]

Structure (SMILES) | Relative Expression of mRNA in Adipocytes: 18S (adipocytes) | Relative Expression of mRNA in Adipocytes: ACADM (adipocytes) | Relative Expression of mRNA in Adipocytes: CPT1A (adipocytes) | Relative Expression of mRNA in Adipocytes: FASN (adipocytes) | Relative Expression of mRNA in Adipocytes: GAPDH (adipocytes) | Relative Expression of mRNA in Adipocytes: PPARGC1A (adipocytes) | Relative Expression of mRNA in Adipocytes: PRDM16 (adipocytes) | IC50 ([1]; Homo sapiens) | Relative Expression of mRNA in Adipocytes: UCP-1 (adipocytes) | Lipogenesis IC50 [1] | IC50 [1]
CC(C)[C@@H]1CC[C@@H](C)C[C@H]1C(=O)NC[C@@H](NC(=O)[C@H](C)N)c1ccccc1 [Formula III] | 1 | 1.75 | 1.7 | 1.85 | 1 | 0.8 | 0.6 | 25 µM | – | – | –
CC1CCC(C(C)C)C(O)C1 (stereo not shown) [Menthol] | 1 | 1.45 | 1.35 | 1.45 | 1 | 2.0 | 0.75 | > 1000 µM | 1.7 | no inhibition | –
CCOC(=O)CNC(=O)[C@@H]1C[C@H](C)CC[C@H]1C(C)C [WS-5] | 0.85 | 1.45 | 1.5 | 2.0 | 1 | 1.7 | 1.3 | 500 µM | 1.5 | – | 600 µM
